3 molecules from US6897228B2, “Pyridoxine and pyridoxal analogues: new uses” (Medicure International Inc., priority 2000, dated 2005) can be followed below.

Assay [1] deals with male Sprague-Dawley rats, occlusion of the left coronary artery. The experiment in a line: In vivo infarct size and scar mass after coronary artery ligation. More on the design: species or system rat. Particulars: after 21 days, 10 mg/kg daily by gastric tube; for infarct size (as a percentage of left ventricle size): untreated control about 45. On the procedure:
(§1) Food and water were supplied ad libitum. […] Hemodynamic and histological assessments were made.
After 21 days, once the hemodynamic data were obtained, the animals were sacrificed and both average dry scar mass to left ventricle mass (n=5/group) and infarct size (n=5/group) were measured. For infarct size measurement, hearts from the untreated and PLP/compound XXIIb-treated groups were fixed in formalin and embedded in paraffin. Six evenly spaced slices were cut across the left ventricle. […] sections were cut from each slice and mounted. Sections were stained with Trichrome to discriminate between fibrous scar and noninfarcted tissue. Using the free-drawing line tool in Scion Image v4.02b, infarct internal perimeter and left ventricle internal perimeter lengths were traced per oculum for each section. Noteworthy transmural scars were taken into account. Infarct size was then expressed as the average scar perimeter/ventricle perimeter ratio. Scar mass measurements were obtained by drying excised scar tissue and left ventricles at 50-60° C. for 72 hours.

The test system of assay [2] is platelets (platelet rich plasma). The experiment in a line: Inhibition of platelet aggregation (aggregometer, platelet rich plasma). Format: cell-based. To be noted: for Extent of aggregation as a percentage amplitude, 1 μg/mL collagen: agonist 1 μg/mL collagen; for Extent of aggregation as a percentage amplitude, 4 μM ADP: agonist 4 μM ADP; for Extent of aggregation as a percentage amplitude, 5 μg/mL collagen: agonist 5 μg/mL collagen; for Extent of aggregation as a percentage amplitude, 12 μM TRAP: agonist 12 μM TRAP. On the procedure:
Platelet rich plasma (PRP) was obtained by drawing whole blood into sodium citrate tubes (3.2%) and centrifuging at 700 rpm for 10 minutes. Platelet poor plasma (PPP) was obtained by centrifuging the remainder of the sample ntil the platelets were removed (3200 rpm for 10 minutes). The PRP was adjusted to a count of 280×10^9/L using a mixture of PRP and PPP. The incubation mixture consisted of 200 μL of platelets and 25 μL of the appropriate compound (18 mM stock for a final concentration of 2 mM and 4.5 mM stock for a final concentration of 500 μM), rendering an approximate final platelet count in the incubation mixture of 250×10^9/L. After incubation (30 minutes at room temperature, the cuvettes were incubated for 3 minutes at 37° C., transferred to the mixing wells and after the baselines transmittances were measured in an aggregometer (Chrono-Log 4), 25 μL of agonist was added to give a final concentration of 4 μM ADP, 1 μg/mL collagen, 5 μg/mL collagen or 12 μM thrombin receptor activating peptide (TRAP). Final transmittances were then measured in the aggregometer (lower percent transmittance represents higher aggregation). […] Table 24-1 gives the results of the extent of aggregation for several compounds as percentage amplitude read directly from the aggregometer.

Assay [3] has as its system male Sprague-Dawley rats, occlusion of the left coronary artery. The experiment in a line: In vivo hemodynamic changes after coronary artery ligation. To be noted: day 21 after coronary ligation; 10 mg/kg daily by gastric tube.
Assay [4] shares this test system. Briefly: In vivo hypertrophy after coronary artery ligation. To be noted: rat model of Example 20. On the procedure:
as §1
Hypertrophy is a physiological condition of enlargement (increased mass) due to increased stress. Cardiac hypertrophy is assessed by calculating the heart to body mass ratio. Treatment with PLP or compound XXIIb results in a decrease in cardiac hypertrophy, in the rat model described in Example 20.

For the molecule 4-methylimidazole pyridoxine [XXIIb], in assay [1], the “dry scar to left ventricle mass ratio” value is recorded as “reductions similar in magnitude to that seen in the PLP group” and the “infarct size (as a percentage of left ventricle size)” value was “reduced”. For the same molecule, in assay [2] (compound 500 μM), the “Extent of aggregation as a percentage amplitude, 1 μg/mL collagen” value amounted to 79%; the “Extent of aggregation as a percentage amplitude, 4 μM ADP” value is reported as 59%; the “Extent of aggregation as a percentage amplitude, 5 μg/mL collagen” value is listed as 82%; the “Extent of aggregation as a percentage amplitude, 12 μM TRAP” value stood at 91%. Further, in assay [2] (compound 2 mM), the “Extent of aggregation as a percentage amplitude, 1 μg/mL collagen” value is reported as 32%; the “Extent of aggregation as a percentage amplitude, 4 μM ADP” value is recorded as 46%; the “Extent of aggregation as a percentage amplitude, 5 μg/mL collagen” value is listed as 77%; the “Extent of aggregation as a percentage amplitude, 12 μM TRAP” value is recorded as 84%. Moreover, in assay [3], the “+dP/dt (rate of contraction)” value was “recoveries”, the “LVEDP in response to coronary occlusion” value is “reduced rises” and the “−dP/dt (rate of relaxation)” value is “recoveries”. The “cardiac hypertrophy (heart to body mass ratio)” value in assay [4] is “decrease”.
With `Cc1ncc(CNc2ccc(C(=N)N)cc2)c(CO)c1O` [Compound XXXV], in assay [2] (compound 500 μM), the “Extent of aggregation as a percentage amplitude, 1 μg/mL collagen” value was found to be 83%; the “Extent of aggregation as a percentage amplitude, 4 μM ADP” value came to 70%; the “Extent of aggregation as a percentage amplitude, 5 μg/mL collagen” value is recorded as 75%; the “Extent of aggregation as a percentage amplitude, 12 μM TRAP” value was 90%. In assay [2] (compound 2 mM), the “Extent of aggregation as a percentage amplitude, 1 μg/mL collagen” value is given as 79%; the “Extent of aggregation as a percentage amplitude, 4 μM ADP” value is listed as 15%; the “Extent of aggregation as a percentage amplitude, 5 μg/mL collagen” value came to 67%; the “Extent of aggregation as a percentage amplitude, 12 μM TRAP” value is reported as 11%.
For the molecule `Cc1ncc(COP(=O)(O)O)c(C=O)c1O` [PLP, 3-hydroxy-2-methyl-5-[(phosphonooxy)methyl]-4-pyridine-carboxaldehyde, reference compound], in assay [1], the “dry scar to left ventricle mass ratio” value was “reduced” and the “infarct size (as a percentage of left ventricle size)” value is listed as “reduced”. In assay [2] (compound 500 μM), the “Extent of aggregation as a percentage amplitude, 1 μg/mL collagen” value came out at 89%; the “Extent of aggregation as a percentage amplitude, 4 μM ADP” value is listed as 69%; the “Extent of aggregation as a percentage amplitude, 5 μg/mL collagen” value was found to be 87%; the “Extent of aggregation as a percentage amplitude, 12 μM TRAP” value was 90%. In addition, in assay [2] (compound 2 mM), the “Extent of aggregation as a percentage amplitude, 1 μg/mL collagen” value amounted to 84%; the “Extent of aggregation as a percentage amplitude, 4 μM ADP” value worked out at 16%; the “Extent of aggregation as a percentage amplitude, 5 μg/mL collagen” value was 89%; the “Extent of aggregation as a percentage amplitude, 12 μM TRAP” value is recorded as 91%. Besides, in assay [3], the “+dP/dt (rate of contraction)” value is “recoveries”, the “LVEDP in response to coronary occlusion” value was “reduced rises” and the “−dP/dt (rate of relaxation)” value is reported as “recoveries”. In assay [4], the “cardiac hypertrophy (heart to body mass ratio)” value was “decrease”.
